Reference: US20200017496A1 (priority 2017, published 2020)

Tests used:
Assay in all cases: MIC of compounds alone and combined with antibacterials, broth microdilution (CLSI)
Format in all cases: cell-based
[1] = test system: Enterobacter aerogenes (EAE) isolates; conditions: AF1 @ 4 μg/mL
Procedure, shortened: (§1)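 Log-phase bacteria at a final 5·10^5 CFU/mL in cation-adjusted Mueller-Hinton broth were incubated 16-20 h at 35° C in ambient air with compound alone or with an antibacterial. MIC was the lowest concentration preventing visible growth; combination MIC of the antibacterial was read at each compound concentration.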

[2] = test system: Escherichia coli (ECO) isolates; conditions: AF1 @ 4 μg/mL
Procedure, shortened: as §1

[3] = test system: Providencia rettgeri (PRE) isolates
Procedure, shortened: as §1

[4] = test system: Providencia stuartii (PST) isolates; conditions: AF1 @ 4 μg/mL
Procedure, shortened: as §1

[5] = test system: Salmonella typhimurium (STY) isolates; conditions: STY S3371; AF1 @ 4 μg/mL
Procedure, shortened: as §1

COCC1=C(C(=O)O)N2C(=O)[C@@H](NC(=O)/C(=N\OC)c3csc(N)n3)[C@H]2SC1 [POD, Cefpodoxime]
MIC ATB in combination ([1]; EAE 49469): 8 µg/mL
MIC ATB in combination ([1]; EAE 200261): 4 µg/mL
MIC ATB in combination ([1]; EAE UFR199): 1 µg/mL
MIC ATB in combination ([1]; EAE UFR201): <=0.25 μg/mL
MIC ATB in combination ([1]; EAE UFR202): 2 µg/mL
MIC ATB in combination ([1]; EAE UFR213): 1 µg/mL
MIC ATB in combination ([2]; ECO 4133): <=0.25 μg/mL
MIC ATB in combination ([2]; ECO 5302): <=0.25 μg/mL
MIC ATB in combination ([2]; ECO 131119): <=0.25 μg/mL
MIC ATB in combination ([2]; ECO 180070): <=0.25 μg/mL
MIC ATB in combination ([2]; ECO 190314): <=0.25 μg/mL
MIC ATB in combination ([2]; ECO 190317): <=0.25 μg/mL
MIC ATB in combination ([2]; ECO 190457): <=0.25 μg/mL
MIC ATB in combination ([2]; ECO 190549): <=0.25 μg/mL
MIC ATB in combination ([2]; ECO 200159): <=0.25 μg/mL
MIC ATB in combination ([2]; ECO 200259): <=0.25 μg/mL
MIC ATB in combination ([2]; ECO 200344): <=0.25 μg/mL
MIC ATB in combination ([2]; ECO 260096): <=0.25 μg/mL
MIC ATB in combination ([2]; ECO 260304): <=0.25 μg/mL
MIC ATB in combination ([2]; ECO 260508): <=0.25 μg/mL
MIC ATB in combination ([2]; ECO RGN238): <=0.25 μg/mL
MIC ATB in combination ([2]; ECO UFR15): <=0.25 μg/mL
MIC ATB in combination ([2]; ECO UFR16): 1 µg/mL
MIC ATB in combination ([2]; ECO UFR17): >128 µg/mL
MIC ATB in combination ([2]; ECO UFR18): 8 µg/mL
MIC ATB in combination ([2]; ECO UFR19): 4 µg/mL
MIC ATB in combination ([2]; ECO UFR20): 4 µg/mL
MIC ATB in combination ([2]; ECO UFR61O): 0.5 µg/mL
MIC ATB in combination ([2]; ECO UFR62): 0.5 µg/mL
MIC ATB in combination ([2]; ECO UFR74): 2 µg/mL
MIC ATB in combination ([2]; ECO UFR86): 1 µg/mL
MIC ATB in combination ([2]; ECO UFR174): <=0.25 μg/mL
MIC ATB in combination ([2]; ECO UFR175): 1 µg/mL
MIC ATB in combination ([2]; ECO UFR176): <=0.25 μg/mL
MIC ATB in combination ([2]; ECO UFR184): 4 µg/mL
MIC ATB in combination ([2]; ECO UFR185): 32 µg/mL
MIC ATB in combination ([2]; ECO UFR186): 1 µg/mL
MIC ATB in combination ([2]; ECO UFR187): 0.5 µg/mL
MIC ATB in combination ([2]; ECO UFR189): <=0.25 μg/mL
MIC ATB in combination ([2]; ECO UFR190): <=0.25 μg/mL
MIC ATB in combination ([2]; ECO UFR191): <=0.25 μg/mL
MIC ATB in combination ([2]; ECO UFR207): <=0.25 μg/mL
MIC ATB in combination ([2]; ECO UFR208): 64 µg/mL
MIC ATB in combination ([2]; ECO UFR209): <=0.25 μg/mL
MIC ATB in combination ([2]; ECO UFR210): <=0.25 μg/mL
MIC ATB in combination ([2]; ECO UFR211): <=0.25 μg/mL
MIC ATB in combination ([2]; ECO UFR212): 32 µg/mL
MIC ATB in combination ([2]; ECO UFR218): <=0.25 μg/mL
MIC ATB in combination ([3]; PRE UFR99, AF1 @ 4 μg/mL): >128 µg/mL
MIC ATB in combination ([3]; strain PRE UFR236, antibacterial combined with AF1 @ 4 μg/mL): 1 µg/mL
MIC ATB in combination ([4]; PST UFR94): 0.5 µg/mL
MIC ATB in combination ([4]; PST UFR95): 2 µg/mL
MIC ATB in combination ([4]; PST UFR235): 2 µg/mL
MIC ATB in combination [5]: <=0.25 μg/mL
